Values of other authors as cited in patent US8236817B2, “Polymorphs of 1-cyclopropy1-7-([s,s])-2,8-diazadicyclo[4.3.0]non-8-yl)-6-fluoro-1,4-dihydro-8-methoxy-4-oxo-3-quinoline carboxylic acid hydrochloride and methods for the preparation thereof” (Chemi S.p.A., priority 2003, dated 2012).

Details: solid form exposed to atmosphere; stated in U.S. Pat. No. 5,849,752

hygroscopicity: absorbs water from the atmosphere
SMILES: COc1c(N2C[C@@H]3CCCN[C@@H]3C2)c(F)cc2c(=O)c(C(=O)O)cn(C3CC3)c12.Cl [anhydrous form]
